Results taken from patent US20020103228A1, “Composition and method for use of pyridinium derivatives in cosmetic and therapeutic applications” (TORRENT PHARMACEUTICALS LTD., priority 1999, published 2002).
Where two headings read alike, the source gives them in different places.

Legend:
[1] = Free radical scavenging activity on ABTS radical cation; format: biochemical
How it was run: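 ABTS radical cation generated with horseradish peroxidase and 1.08 mM H2O2 stock in PBS, preincubated 30 min at 30 °C. Serial dilutions were added, and absorbance at 730 nm was read immediately against PBS blank. % activity = (OD test/OD control ×100) − 100.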

[2] = test system: Rat-Tail Tendon collagen of diabetic male wister rats; conditions: 8 weeks of treatment
Experimental: To evaluate AGE breaker efficacy of compounds of formula (I) the process of aging was mimicked by induction of diabetes in male wister rats. Diabetes was induced in male wister rats (by repeated STZ injections) to mimic the process of aging and formation of AGE. Diabetic male wister rats were treated with compounds of formula (I) for a period of 8 weeks after induction of diabetes and collagen solubility was measured in Rat-Tail Tendon. Rat Tail Tendon were selected because of their similarity with skin collagen (i.e. Type I collagen). After 8 weeks of treatment the “control” and “treated” groups of animals were sacrificed and tail tendons were homogenized, digested with hydrochloric acid and the supernatant of both the groups of animals was assayed for hydroxyprolin for acid soluble collagen contents as per method of Stegemann and Stalder (clinica Chimica Acta, 18 (1967) 267-273).
Diabetes and aging are degenerative process where normal proteins like collagen become cross-linked. The cross linking of skin collagen can lead to complications like Aging. To test the ability of compounds of invention to break pre-formed AGE, diabetic animals were treated for 8 weeks with the compounds. After the treatment the collagen solubility was estimated to determine their AGE breaking activity.

AGE-BSA = molecular target: T1, AGE-BSA (Bos taurus, UniProt P02769); test: In-vitro AGE breaking activity by ELISA; format: biochemical, Bovine; conditions: 37° C., 24 hours
T1 construct: Bovine serum albumin (fraction V) (BSA); from tissue; host or cells: bovine serum (fraction V); glycated in house with 1.6 M glucose at 37 °C for 16 weeks
How it was run: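 BSA glycated with 1.6 M glucose in PBS at 37° C for 16 weeks, then dialyzed; 10 μg/ml AGE-BSA incubated with test compounds 24 h at 37° C. Remaining AGE-BSA coated at 5–20 ng/well and quantified by ELISA (anti-AGE-BSA primary, HRP anti-rabbit, OPD, OD 450–620 nm); % breaking calculated versus untreated 20 ng AGE-BSA.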

arterial stiffness = conditions: diabetes induced (Wolffenbutel 1998); cited from earlier work
diabetic rats [3] = conditions: cited from earlier work
diabetic rats [4] = conditions: cited from earlier work; remark: listed apart in the source
[5] = test system: rat model of diabetic retinopathy; conditions: cited from earlier work
old rats = conditions: Li et al (1996); cited from earlier work

T1 sequence (P02769 25-607): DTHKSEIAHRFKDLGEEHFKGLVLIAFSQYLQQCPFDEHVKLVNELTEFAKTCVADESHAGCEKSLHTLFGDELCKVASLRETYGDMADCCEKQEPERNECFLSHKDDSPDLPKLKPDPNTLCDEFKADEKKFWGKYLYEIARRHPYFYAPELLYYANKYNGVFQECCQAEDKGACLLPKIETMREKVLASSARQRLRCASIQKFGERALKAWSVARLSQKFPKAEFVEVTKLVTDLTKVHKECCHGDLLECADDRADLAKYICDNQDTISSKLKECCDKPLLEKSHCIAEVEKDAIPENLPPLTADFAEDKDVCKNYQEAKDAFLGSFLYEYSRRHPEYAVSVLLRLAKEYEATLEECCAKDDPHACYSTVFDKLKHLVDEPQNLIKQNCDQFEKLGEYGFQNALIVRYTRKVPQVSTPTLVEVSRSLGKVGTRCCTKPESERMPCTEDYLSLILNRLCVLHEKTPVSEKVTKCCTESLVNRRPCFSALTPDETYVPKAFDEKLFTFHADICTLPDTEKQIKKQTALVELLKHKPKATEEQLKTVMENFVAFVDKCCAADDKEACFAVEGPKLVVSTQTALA

SMILES | Relative Free Radical Scavenging Activity (%) on ABTS ([1]; 11.5 μM) [%] | Relative Free Radical Scavenging Activity (%) on ABTS ([1]; 23.0 μM) [%] | Relative Free Radical Scavenging Activity (%) on ABTS ([1]; 46.0 μM) [%] | Relative Free Radical Scavenging Activity (%) on ABTS ([1]; 92.5 μM) [%] | % Breakage (AGE-BSA; 5 mM test compound) [%] | also measured
O=C(C[n+]1cccc(C(=O)NNC(=O)c2ccc[n+](CC(=O)NC3CC3)c2)c1)NC1CC1.[Cl-].[Cl-] [Compound 39, N,N′-bis-[3-carbonyl-1-(2-cyclopropylamino-2-oxoethyl)pyridinium]hydrazine dichloride] | 43.0 | 62.8 | 95.6 | 98 | 22.8 | % Improvement in collagen solubility with respect to untreated control subject. ([2]; 6.0 mg/kg): 28.00%
Cc1sc[n+](CC(=O)c2ccccc2)c1C.[Cl-] [ALT-711] |  |  |  |  |  | arterial stiffness and arterial compliance (arterial stiffness): reverse diabetes induced increase of arterial stiffness and improve arterial compliance
N=C(N)NN [Aminoguanidine] |  |  |  |  |  | development of diabetic nephropathy (diabetic rats [3]; Yamauchi (1997)): inhibits development of diabetic nephropathy; thickening of glomerular basement membrane (diabetic rats [3]; diabetic rats (Ellis 1991)): ameliorate thickening of glomerular basement membrane; rise in albuminuria (diabetic rats [3]; experimental diabetic rats (Soulis-Liparota, 1991)): attenuate the rise in albuminuria; nerve conduction velocity (diabetic rats [4]): improve nerve conduction velocity; progression of diabetic retinopathy [5]: retard progression of diabetic retinopathy; tissue damage in aging (old rats): significantly prevent tissue damage
CS(=O)(=O)NNC(=O)c1ccc[n+](CC(=O)c2cccs2)c1.[Br-] [Compound 5, 1-(2-thien-2′-yl-2-oxoethyl)-3-(methanesulfonylhydrazinocarbonyl)pyridinium bromide] | 47.2 | 65.6 | 83.7 | 100 |  | % Improvement in collagen solubility with respect to untreated control subject. ([2]; 10.0 mg/kg): 88.80%; % Breakage (AGE-BSA; 10 mM test compound): 16%; % Breakage (AGE-BSA; 50 mM test compound): 68%
O=C(NNC(=O)c1ccc[n+](CC(=O)c2cccs2)c1)c1ccc[n+](CC(=O)c2cccs2)c1.[Cl-].[Cl-] [Compound 33, N,N′-bis[3-carbonyl-1-(2-thien-2′-yl-2-oxoethyl)pyridinium]hydrazine dichloride] | 58.4 | 72.8 | 98.5 | 100 | 20 | % Improvement in collagen solubility with respect to untreated control subject. ([2]; 15.0 mg/kg): 80.45%
O=C(NNC(=O)c1ccc[n+](CC(=O)c2cc([N+](=O)[O-])cs2)c1)c1ccc[n+](CC(=O)c2cc([N+](=O)[O-])cs2)c1.[Cl-].[Cl-] [Compound 56, N,N′-bis[3-carbonyl-1-(2-(4-nitrothien-2-yl)-2-oxoethyl)pyridinium]hydrazine dichloride] | 43.0 | 57.2 | 71.6 | 97.7 |  | Relative Free Radical Scavenging Activity (%) on ABTS ([1]; 925 μM): 100%; % Breakage (AGE-BSA; 10 mM test compound): 75.92%
O=C(NNC(=O)c1ccc[n+](CC(=O)c2cccs2)c1)c1ccc[n+](CC(=O)c2cccs2)c1.[Br-].[Br-] [Compound 6, N,N′-bis[3-carbonyl-1-(2-thien-2′-yl-2-oxoethyl)pyridinium]hydrazine dibromide] |  |  |  |  | 53 | % Improvement in collagen solubility with respect to untreated control subject. ([2]; 7.5 mg/kg): 56.70%
